Assay results published in patent US20130324582A1, “METHODS AND COMPOSITIONS FOR REDUCING FUNGAL INFESTATION AND IMPROVING GRASS QUALITY” (BAYER CROPSCIENCE LP, priority 2012, published 2013).

System: Dollar Spot
Assay: Dollar Spot infestation on Bentgrass Green (field application by knapsack sprayer)
Type: in vivo, Sclerotinia homoeocarpa
Conditions: applied at 0, 6, 14 days
Source text: Example 1 sets forth the Dollar Spot infestation on Bentgrass Green.
A suspension concentrate composition of Compound I-1 as defined herein with and without the addition of Synergen® KN was applied to Bentgrass Green at 0, 6, and 14 days using a knapsack sprayer. Synergen® KN contains a blend of phosphate and ethoxylated alcohol compounds, such as a blend of poly(oxy-1,2-ethanediyl), α-isotridecyl-ω-hydroxy-, phosphate and ethoxylated C12-C16 alcohols.
In Table 1, untreated Bentgrass Green (1) was compared to a composition including Compound I-1 at 440 grams/hectacre (“GA/HA”) (2), a composition including Compound I-1 at 440 GA/HA+Synergen® KN at 1% by volume (3), a composition including Compound I-1 at 880 GA/HA (4), a composition including Compound I-1 at 880 GA/HA+Synergen® KN at 1% by volume (5), a composition including Compound I-1 at 1320 GA/HA (6), and composition including a Compound I-1 at 1320 GA/HA+Synergen® KN at 1% by volume (7). As set forth in Table 1, ratings were evaluated at −1, 6, 13, 22, 28, 35, and 48 days.

With `Cn1c(=O)c2sc3c(=O)n(C)c(=O)c3sc2c1=O` [Compound I-1, 2,6-dimethyl-1H,5H-[1,4]dithiino[2,3-c:5,6-c′]dipyrrole-1,3,5,7(2H,6H)-tetrone] the “Percentage of Dollar Spot” value (440 GA/HA, rating Day 6, adjuvant where present 1% by volume) was 7.5%, the “Percentage of Dollar Spot” value (440 GA/HA, rating Day 13, adjuvant where present 1% by volume) was 10.8% and the “Percentage of Dollar Spot” value (440 GA/HA, rating Day 22, adjuvant where present 1% by volume) was 12.8%. The “Percentage of Dollar Spot” value (440 GA/HA, rating Day 28, adjuvant where present 1% by volume) was 14.5%, the “Percentage of Dollar Spot” value (440 GA/HA, rating Day 35, adjuvant where present 1% by volume) was 19.5% and the “Percentage of Dollar Spot” value (440 GA/HA, rating Day 48, adjuvant where present 1% by volume) was 22.8%. For the same molecule, the “Percentage of Dollar Spot” value (440 GA/HA, rating Day −1, adjuvant where present 1% by volume) was 8.3%, the “Percentage of Dollar Spot” value (880 GA/HA, rating Day 6, adjuvant where present 1% by volume) was 7.8% and the “Percentage of Dollar Spot” value (880 GA/HA, rating Day 13, adjuvant where present 1% by volume) was 10.5%. For the same molecule, the “Percentage of Dollar Spot” value (880 GA/HA, rating Day 22, adjuvant where present 1% by volume) was 11.3%, the “Percentage of Dollar Spot” value (880 GA/HA, rating Day 28, adjuvant where present 1% by volume) was 12.5% and the “Percentage of Dollar Spot” value (880 GA/HA, rating Day 35, adjuvant where present 1% by volume) was 17%. The “Percentage of Dollar Spot” value (880 GA/HA, rating Day 48, adjuvant where present 1% by volume) was 20.8%, the “Percentage of Dollar Spot” value (880 GA/HA, rating Day −1, adjuvant where present 1% by volume) was 8.3% and the “Percentage of Dollar Spot” value (1320 GA/HA, rating Day 6, adjuvant where present 1% by volume) was 8.3%. The “Percentage of Dollar Spot” value (1320 GA/HA, rating Day 13, adjuvant where present 1% by volume) was 10.5%, the “Percentage of Dollar Spot” value (1320 GA/HA, rating Day 22, adjuvant where present 1% by volume) was 12.8% and the “Percentage of Dollar Spot” value (1320 GA/HA, rating Day 28, adjuvant where present 1% by volume) was 14.8%. The “Percentage of Dollar Spot” value (1320 GA/HA, rating Day 35, adjuvant where present 1% by volume) was 17%, the “Percentage of Dollar Spot” value (1320 GA/HA, rating Day 48, adjuvant where present 1% by volume) was 20% and the “Percentage of Dollar Spot” value (1320 GA/HA, rating Day −1, adjuvant where present 1% by volume) was 9%.
